A short description of test [1]: Binding affinity to target base C of 5'-TCC AGX GCA AC-3'/3'_AGG TCC CGT TG-5' 11 mer duplex DNA containing abasic site at 10 uM by fluorescence quenching measurement.
Test [2] can be described thus: Binding affinity to target base T of 5'-TCC AGX GCA AC-3'/3'_AGG TCT CGT TG-5' 11 mer duplex DNA containing abasic site at 10 uM by fluorescence quenching measurement.
Test [3] in a line: Binding affinity to target base T of 5'-TCC AGX GCA AC-3'/3'_AGG TCT CGT TG-5' 11 mer duplex DNA containing abasic site assessed as melting temperature at 150 uM by spectrophotometric analysis relative to control.
Test [4] in a line: Binding affinity to target base A of 5'-TCC AGX GCA AC-3'/3'_AGG TCA CGT TG-5' 11 mer duplex DNA containing abasic site assessed as melting temperature at 150 uM by spectrophotometric analysis relative to control.
Test [5] in a line: Binding affinity to target base C of 5'-TCC AGX GCA AC-3'/3'_AGG TCC CGT TG-5' 11 mer duplex DNA containing abasic site assessed as melting temperature at 150 uM by spectrophotometric analysis relative to control.
A short description of test [6]: Binding affinity to target base G of 5'-TCC AGX GCA AC-3'/3'_AGG TCG CGT TG-5' 11 mer duplex DNA containing abasic site assessed as melting temperature at 150 uM by spectrophotometric analysis relative to control.
Test [7] can be described thus: Binding affinity to target base T of 5'-TCC AGX GCA AC-3'/3'_AGG TCT CGT TG-5' 11 mer duplex DNA containing abasic site assessed as melting temperature at 150 uM by spectrophotometric analysis.
The nature of test [8]: Binding affinity to target base A of 5'-TCC AGX GCA AC-3'/3'_AGG TCA CGT TG-5' 11 mer duplex DNA containing abasic site assessed as melting temperature at 150 uM by spectrophotometric analysis.
Test [9] can be described thus: Binding affinity to target base C of 5'-TCC AGX GCA AC-3'/3'_AGG TCC CGT TG-5' 11 mer duplex DNA containing abasic site assessed as melting temperature at 150 uM by spectrophotometric analysis.
Test [10] in a line: Binding affinity to target base G of 5'-TCC AGX GCA AC-3'/3'_AGG TCG CGT TG-5' 11 mer duplex DNA containing abasic site assessed as melting temperature at 150 uM by spectrophotometric analysis.

A word on the ΔTm: it is the change in melting temperature against a reference sample. A word on the Tm: it is the temperature at which the thermal transition is half complete. Take `Nc1nc2[nH]c(=O)cnc2c(=O)[nH]1`: the Activity was determined as 43.5% in test [1] and 51.7% in [2]. Besides, the ΔTm in [3] was 4.8 °C; in [4], 2.2 °C; in test [5], 4.5 °C; in test [6], -0.4 °C. The Tm in test [7] stood at 32.7 °C; in [8] it was 36 °C; in [9], 33.7 °C; in test [10] it was 33.6 °C.
The compound `Cn1c(N)nc2[nH]c(=O)cnc2c1=O` displayed an Activity in test [2] of 72.9%. The ΔTm in test [3] is 6 °C; in [4], 1.8 °C; in test [5] it was 0.4 °C; in test [6], 0.9 °C. Further, the Tm in [7] came to 33.9 °C; in [8], 35.6 °C; in test [9], 29.6 °C; in [10], 34.9 °C.
For the compound `Cn1c(=O)cnc2c(=O)[nH]c(N)nc21`, in test [1], the Activity worked out at 72%. For the same compound, the ΔTm in [3] worked out at 1.8 °C; in test [4] it was 0.2 °C; in [5] it was 5.9 °C; in test [6], 0.9 °C. The Tm in [7] is 29.7 °C; in test [8] it was 34 °C; in test [9], 35.1 °C; in [10], 34.9 °C.

Values taken from ChEMBL document CHEMBL1139253, “Effect of methyl substitution in a ligand on the selectivity and binding affinity for a nucleobase: a case study with isoxanthopterin and its derivatives” (Bioorg Med Chem, 2009).
